Assay results published in patent publication US20200405697A1, “Antitumor Agent” (Taiho Pharmaceutical Co., Ltd, priority 2017, published 2020).

Assays:
[1] = tested on: GB-1 cells; assay: Cell proliferation inhibitory effect on human cancer cell lines: GB-1; type: cell-based; conditions: GB-1, Glioblastoma, DMEM + 10% FBS, 3000 cell/well
Protocol: Human derived breast cancer cell line HCC 1806 cells (American Type Culture Collection, ATCC) were daily passaged at a cell density not exceeding 80% in ATCC recommended Roswell Park Memorial Institute medium (RPMI-1640) containing 10% fetal bovine serum (FBS). In order to start the test of cell proliferation inhibitory activity, HCC 1806 cells were suspended in the above medium, after seeing at 180 μL in each well of a 96-well flat bottom plate so that the number of cells per well was 2,000, the cells were cultured at 37° C. for 1 day in an incubator containing 5% carbon dioxide gas.
On the next day, the Example compound was dissolved in DMSO, and 20 μL of a drug additive solution diluted serially with distilled water to 10 times of the final concentration was added to each well of the culture plate of the cells, and the cells were cultured at 37° C. for 72 hours in an incubator containing 5% carbon dioxide gas. After culturing for 72 hours, 20 μL of glutaraldehyde was added to each well and allowed to stand for 30 minutes, then the plate was washed 10 times with water and was dried. 100 μL of a stain solution (0.05% crystal violet in a 20% methanol solution) was added to each well and allowed to stand for 30 minutes, then the plate was washed 10 times with water and was dried. 100 μL of an extract solution (0.1 N NaH2PO4: 100% ethanol=1:1) was added to each well and mixed, and the mixture was measured at a wavelength of 540 nm using a plate reader (MTP-450 manufactured by Corona Electric Co., Ltd.).
The growth inhibition rate was calculated from the following formula, and the concentration (IC50 (μM)) of a compound inhibiting 50% was determined.
According to the method of Test Example 2, the cell proliferation inhibitory effect on various cancer cell lines as described in Table 24 was evaluated. […]

[2] = tested on: MV-4-11; assay: Antitumor effect in human-derived blood cancer cell line (MV-4-11) subcutaneous transplantation model (in vivo); parameters: species or system nude mouse (BALB/cA Jcl-nu/nu); conditions: oral, 100 mg/kg/day once per day for 14 days; RTV vs control group, Student-t test, p<0.05
Protocol: A human-derived blood cancer cell line MV-4-11 was transplanted subcutaneously into a nude mouse (BALB/cA Jcl-nu/nu, CLEA Japan, Inc.), and at the time when the tumor volume of the nude mouse on which the engrafted tumor reached 100 to 300 mm^3, four mice were assigned to each group by random stratification so that the average of the tumor volumes of each group was uniform (day 0), and the Example compound was orally administered daily at 100 mg/kg/day once per day for 14 days. Example Compound dosing solutions were prepared using 0.5% HPMC.
An electric balance for animals was used in body weight measurement. Rate of change in body weight on day n (BWCn) from body weight on day n (BWn) was calculated according to the following equation.
Rate of change in body weight BWCn (%)=(BWn−BW0)/BW0×100
Tumor volume (TV) was calculated according to the following equation by sandwiching and measuring the major axis and the minor axis with a digital caliper.
Tumor volume (mm^3)=Major axis (mm)×Minor axis (mm)×Minor axis (mm)/2
In order to compare the chronological transition of proliferation of tumor for the administration of each compound, relative tumor volume (RTV) setting the tumor volume at the time of grouping as 1 as the tumor proliferation rate was calculated according to the following formula, and the transition of the average value of RTV of each individual are shown in FIGS. 1 to 4.
RTV=(tumor volume at the day of tumor volume measurement)/(tumor volume at the time of the grouping)

[3] = tested on: HCT116 (Human large intestine cancer cell line); assay: Effect of combination of sulfonamide compound and other antitumor agent (CellTiter-Glo, combination index): HCT116; type: cell-based
Protocol: Each cell line was seeded at 90 L/well to a 96-well culture plate (Thermo Fisher Scientific, Inc.) according to the above tables. The cell-seeded plate was cultured in an incubator set to 37° C. and 500 CO2. On the day following seeding, varying concentrations of the sulfonamide compound and the other antitumor agent were added in combination to the cells. […] The serial dilutions of each compound, or DW was added at 5μL/well to the plate such that each compound and DW, or the sulfonamide compound and the other antitumor agent were combined. […] The plate after the addition was cultured at 37° C. for 3 days under 5% CO2 conditions.
Three days later, CellTiter-Glo(R) 2.0 Reagent (Promega Corporation) was added at 100 μL/well, and the amount of luminescence was measured using a plate reader EnSpire(R) Multimode Plate Reader (PerkinElmer Co., Ltd.).
An average value from 3 wells was calculated as to each drug condition from the obtained data, and cell survival rate normalized against control wells supplemented with the vehicle (DW) was calculated. A Fa (fractional inhibition) value was calculated by subtracting the cell survival rate from 1.

[4] = Example Compound 1 341 nM + Prexasertib 7.14 nM, molar ratio 1:0.02093
[5] = Example Compound 1 512 nM + Prexasertib 10.7 nM, molar ratio 1:0.02093
[6] = Example Compound 1 768 nM + AZD6738 508 nM, molar ratio 1:0.6621
[7] = Example Compound 1 768 nM + Prexasertib 16.1 nM, molar ratio 1:0.02093
[8] = Example Compound 1 1150 nM + AZD6738 761 nM, molar ratio 1:0.6621

**Q.** Which IC50 [1] does the source give for `Cc1ccc(F)c([C@@H](C)[C@H](NS(=O)(=O)c2ccc(Br)cc2C(N)=O)c2n[nH]c(=O)o2)c1C` [Example 1, 5-bromo-2-(N-((1 S,2R)-2-(6-fluoro-2,3-dimethylphenyl)-1-(5-oxo-4,5-dihydro-1,3,4-oxadiazol-2-yl)propyl)sulfamoyl)benzamide] here?
**A.** 1560 nM

**Q.** What about the “antitumor effect (relative tumor volume, RTV)” value [2] of the same compound?
**A.** antitumor effect

**Q.** What about the CI value [3, 4] of the same compound?
**A.** 0.451

**Q.** What about the Fa value [3, 4] of the same compound?
**A.** 0.6993

**Q.** And the CI value [3, 5]?
**A.** 0.243

**Q.** And the Fa value [3, 5]?
**A.** 0.9038

**Q.** And the CI value [3, 6]?
**A.** 0.264

**Q.** What about the Fa value [3, 6] of the same compound?
**A.** 0.8782

**Q.** And the CI value [3, 7]?
**A.** 0.197

**Q.** And the Fa value [3, 7]?
**A.** 0.9579

**Q.** What about the CI value [3, 8] of the same compound?
**A.** 0.218

**Q.** What about the Fa value [3, 8] of the same compound?
**A.** 0.9579
